{"source": "patent US20060122191A1", "about": "“N-(indolethyl-)cycloamine compounds” (priority 2002, published 2006)", "key": {"[1]": {"target": "T1, serotonin reuptake (SSRI) (Rattus norvegicus, UniProt P31652)", "T1 construct": "from tissue", "T1 sequence (P31652 whole entry)": "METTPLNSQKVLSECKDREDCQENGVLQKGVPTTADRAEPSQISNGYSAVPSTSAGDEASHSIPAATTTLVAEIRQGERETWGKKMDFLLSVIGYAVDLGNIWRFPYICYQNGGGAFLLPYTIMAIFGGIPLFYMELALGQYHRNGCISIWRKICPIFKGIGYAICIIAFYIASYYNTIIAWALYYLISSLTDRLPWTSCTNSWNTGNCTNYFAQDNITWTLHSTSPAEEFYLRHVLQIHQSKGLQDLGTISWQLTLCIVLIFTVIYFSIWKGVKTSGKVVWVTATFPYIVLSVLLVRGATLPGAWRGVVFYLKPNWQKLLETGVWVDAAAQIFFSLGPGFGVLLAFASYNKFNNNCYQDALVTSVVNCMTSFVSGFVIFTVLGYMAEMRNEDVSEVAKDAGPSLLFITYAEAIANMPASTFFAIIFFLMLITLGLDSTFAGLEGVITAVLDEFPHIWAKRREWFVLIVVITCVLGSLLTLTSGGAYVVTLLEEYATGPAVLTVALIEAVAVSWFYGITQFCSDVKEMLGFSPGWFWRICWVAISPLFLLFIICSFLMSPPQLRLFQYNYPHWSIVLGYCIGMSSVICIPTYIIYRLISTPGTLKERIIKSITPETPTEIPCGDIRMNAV", "test": "Serotonin reuptake inhibition (SSRI), receptor binding studies", "format": "biochemical", "excerpt": "(§1) In-vitro evidence of interaction with the above-mentioned receptors can be provided, for example, as described in the following references: • 5-HT1A: Cossery J. M., Gozlan H., Spampinato U., Perdicakis C., Guillaumet G., Pichat L., Hamon M., 1987. The selective labeling of central 5-HT1A receptor binding sites by [3H]5-methoxy-3-(di-n-propylamino)chroman. Eur. J. Pharmacol. 140,143-55. • 5-HT2A: Klockow M., Greiner H. E., Haase A., Schmitges C.-J., Seyfried C. 1986. Studies on the receptor profile of bisoprolol. Arzneimittelforschung 36,197-200. • SSRI: Wong, D T, Bymaster, F P, Mayle, D A. Reid, L R, Krushinski, J H, Robertson, D W. LY248686, a new inhibitor of serotonin and norepinephrine uptake. Neuropsychopharmacology 8, 23-33, 1993\n(§2) As illustrative of two compounds of the formula I, receptor binding constants determined by the test systems described at the outset are indicated below: […]"}, "5-HT2A": {"target": "5-HT2A (UniProt P14842)", "test": "5-HT2A receptor binding", "excerpt": "as §1, §2"}, "5-HT1A": {"target": "T2, 5-HT1A (Rattus norvegicus, UniProt P19327)", "T2 construct": "from tissue", "T2 sequence (P19327 1-422)": "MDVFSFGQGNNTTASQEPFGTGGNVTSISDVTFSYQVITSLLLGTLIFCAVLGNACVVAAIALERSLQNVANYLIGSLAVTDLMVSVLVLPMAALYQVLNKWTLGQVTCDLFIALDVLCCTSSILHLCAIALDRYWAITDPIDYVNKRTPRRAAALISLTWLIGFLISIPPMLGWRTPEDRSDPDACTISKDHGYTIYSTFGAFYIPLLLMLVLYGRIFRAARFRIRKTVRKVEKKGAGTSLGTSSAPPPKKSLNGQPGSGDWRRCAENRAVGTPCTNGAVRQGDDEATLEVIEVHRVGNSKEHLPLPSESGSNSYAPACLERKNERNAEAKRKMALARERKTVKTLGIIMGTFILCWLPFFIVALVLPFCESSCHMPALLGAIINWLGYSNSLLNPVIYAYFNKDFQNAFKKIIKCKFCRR", "test": "5-HT1A receptor binding", "excerpt": "as §1, §2"}}, "note": "Counter-ions that a name gives are not always drawn. Like-named read-outs stand apart in the source and are kept apart here."}
{"molecule": "N#Cc1ccc2[nH]cc(CCN3CCN(c4cccc5c4OCCO5)CC3)c2c1", "note": "(as salt: hydrochloride) [a), 3-{2-[4-(2,3-Dihydrobenzo-1,4-dioxin-5-yl)piperazin-1-yl]ethyl}-1H-indole-5-carbonitrile]", "values": [{"measurement": "melting point", "result": "277.5 to 278.5", "unit": "°C"}]}
{"molecule": "N#Cc1ccc2[nH]cc(CCN3CCN(c4cccc5c4OCCO5)CC3)c2c1", "note": "[a), 3-{2-[4-(2,3-Dihydrobenzo-1,4-dioxin-5-yl)piperazin-1-yl]ethyl}-1H-indole-5-carbonitrile]", "values": [{"measurement": "Ki", "setting": "[1]; test system per Wong et al. 1993, read-out: receptor binding constant SSRI", "result": 11, "unit": "nM"}, {"measurement": "Ki", "setting": "5-HT2A; test system per Klockow et al. 1986; read-out: receptor binding constant 5-HT2A", "result": 11, "unit": "nM"}, {"measurement": "Ki", "setting": "5-HT1A", "result": 17, "unit": "nM"}]}
{"molecule": "N#Cc1ccc2[nH]cc(CCN3CCN(c4cccc5nsnc45)CC3)c2c1", "note": "[b), 3-[2-(4-Benzo-1,2,5-thiadiazol-4-yl-piperazin-1-yl)ethyl]-1H-indole-5-carbonitrile]", "values": [{"measurement": "Ki", "setting": "[1]", "result": 4.3, "unit": "nM"}, {"measurement": "Ki", "setting": "5-HT2A; read-out: receptor binding constant 5-HT2A; test system per Klockow et al. 1986", "result": 7.3, "unit": "nM"}, {"measurement": "Ki", "setting": "5-HT1A; test system per Cossery et al. 1987, read-out: receptor binding constant 5-HT1A", "result": 110, "unit": "nM"}]}
